{"source": "patent US20190263927A1", "about": "“COMBINATION OF A PD-1 ANTAGONIST AND ERIBULIN FOR TREATING UROTHELIAL CANCER” (Merck Sharp & Dohme Corp., priority 2016, published 2019)", "origin": "cited, not measured here", "system": "patients with metastatic UC (mUC)", "details": "eribulin monotherapy; patients with metastatic/advanced UC; NCI Protocol No. 7435", "data": [{"molecule": "C=C1C[C@@H]2CC[C@@]34C[C@H]5O[C@H]6[C@@H](O3)[C@H]3O[C@H](CC[C@@H]3O[C@H]6[C@H]5O4)CC(=O)C[C@@H]3[C@@H](OC)[C@@H](C[C@H](O)CN)O[C@H]3C[C@H]3O[C@@H](CC[C@@H]1O2)C[C@@H](C)C3=C", "note": "[Eribulin]", "values": [{"measurement": "clinical benefit for treatment of patients with mUC", "result": "provide clinical benefit"}]}]}
